The results in this text go back to patent publication US8754242B2, “Herbicides” (Syngenta Crop Protection LLC, priority 2007, dated 2014).

Type in all cases: in vivo
Assay [1] relates to Alopecurus myosuroides (ALOMY). In words: Test Example 1 pre-emergence herbicidal activity. The settings on record: Alopecurus myosuroides, 480 h, rate 250 g/ha, evaluated 20 days later, read-out: Pre-emergence activity ALOMY (100=total damage to plant; 0=no damage to plant). The essentials: (§1)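 Greenhouse pot test; spray application pre-emergence (1 d after sowing) or post-emergence (10 d growth). Rating 0–100% damage; pre read at 20 d, post at 15 d.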

For assay [2], the system named is Digitaria sanguinalis (DIGSA). In words: Test Example 1 pre-emergence herbicidal activity. The following applies: Digitaria sanguinalis, 480 h, rate 250 g/ha, evaluated 20 days later, read-out: Pre-emergence activity DIGSA (100=total damage to plant; 0=no damage to plant). In short, it runs like this: as §1
For assay [3], the system named is Echinochloa crus-galli (ECHCG). In words: Test Example 1 pre-emergence herbicidal activity. The following applies: Echinochloa crus-galli, 480 h, rate 250 g/ha, evaluated 20 days later, read-out: Pre-emergence activity ECHCG (100=total damage to plant; 0=no damage to plant). The essentials: as §1
Assay [4] concerns Lolium perenne (LOLPE). In words: Test Example 1 pre-emergence herbicidal activity. The settings on record: Lolium perenne, 480 h, rate 250 g/ha, evaluated 20 days later, read-out: Pre-emergence activity LOLPE (100=total damage to plant; 0=no damage to plant). In short, it runs like this: as §1
Assay [5] has as its system Avena fatua (AVEFA). In words: Test Example 1 pre-emergence herbicidal activity. The settings on record: Avena fatua, 480 h, rate 250 g/ha, evaluated 20 days later, read-out: Pre-emergence activity AVEFA (100=total damage to plant; 0=no damage to plant). The essentials: as §1
Assay [6] concerns Setaria faberi (SETFA). In words: Test Example 1 pre-emergence herbicidal activity. The settings on record: Setaria faberi, 480 h, rate 250 g/ha, evaluated 20 days later, read-out: Pre-emergence activity SETFA (100=total damage to plant; 0=no damage to plant). In short, it runs like this: as §1
For assay [7], the system named is Alopecurus myosuroides (ALOMY). In words: Test Example 1 post-emergence herbicidal activity. The settings on record: 360 h, rate 125 g/ha, evaluated 15 days later, read-out: Post-emergence activity ALOMY (100=total damage to plant; 0=no damage to plant). The essentials:
as §1

In assay [8] the test system is Digitaria sanguinalis (DIGSA). In words: Test Example 1 post-emergence herbicidal activity. The following applies: 360 h, rate 125 g/ha, evaluated 15 days later, read-out: Post-emergence activity DIGSA (100=total damage to plant; 0=no damage to plant). The essentials: as §1
Assay [9] deals with Echinochloa crus-galli (ECHCG). Kind of assay: Test Example 1 post-emergence herbicidal activity. The settings on record: 360 h, rate 125 g/ha, evaluated 15 days later, read-out: Post-emergence activity ECHCG (100=total damage to plant; 0=no damage to plant). In short, it runs like this:
as §1

The test system of assay [10] is Lolium perenne (LOLPE). Kind of assay: Test Example 1 post-emergence herbicidal activity. The following applies: 360 h, rate 125 g/ha, evaluated 15 days later, read-out: Post-emergence activity LOLPE (100=total damage to plant; 0=no damage to plant). In short, it runs like this:
as §1

In assay [11] the test system is Avena fatua (AVEFA). Kind of assay: Test Example 1 post-emergence herbicidal activity. The settings on record: 360 h, rate 125 g/ha, evaluated 15 days later, read-out: Post-emergence activity AVEFA (100=total damage to plant; 0=no damage to plant). The essentials: as §1
Assay [12] concerns Setaria faberi (SETFA). Kind of assay: Test Example 1 post-emergence herbicidal activity. The settings on record: 360 h, rate 125 g/ha, evaluated 15 days later, read-out: Post-emergence activity SETFA (100=total damage to plant; 0=no damage to plant). The essentials: as §1

As to `Cc1cc(C)c(C2=C(O)[C@H]3[C@@H](C2=O)[C@]2(C)CC(C)[C@@]3(C)O2)c(C)c1` (stereo partly drawn) [Example T125], the pest or weed control at 250 g/ha in assay [1] stood at 70%; in assay [2], 100%; in [3], 100%; in [4] it was 100%; in assay [5] it was 70%; in assay [6], 100%. For the same compound, the pest or weed control at 125 g/ha is 80% in assay [7]; 80% in assay [8]; 90% in [9]; 70% in assay [10]; 70% in [11]; 80% in assay [12].
As to `Cc1cc(C)c(C2=C(O)[C@@H]3[C@@H]4O[C@@H](C[C@H]4c4ccc(F)nc4)[C@@H]3C2=O)c(C)c1` [Example T129], the pest or weed control at 250 g/ha in assay [1] is 100%; in [2], 90%; in assay [3] it was 100%; in assay [4] it was 90%; in [5], 90%; in assay [6], 100%. In addition, the pest or weed control at 125 g/ha in [7] was determined as 80%; in assay [8] it was 80%; in [9] it was 100%; in assay [10], 70%; in assay [11] it was 80%; in assay [12] it was 100%.
Regarding `CCc1ccc(Br)cc1C1=C(O)[C@H]2[C@@H](C1=O)[C@@H]1CC[C@H]2O1` [Example T134], the pest or weed control at 250 g/ha was 60% in [1]; 50% in [2]; 20% in [3]; 70% in assay [4]; 20% in assay [5]; 0% in [6]. Moreover, the pest or weed control at 125 g/ha in assay [7] turned out to be 20%; in assay [8], 20%; in assay [9], 70%; in assay [10] it was 20%; in [11], 20%; in [12] it was 50%.
With `CCc1cc(C)cc(CC)c1C1=C(O)[C@@H]2[C@@H]3O[C@@H](C[C@H]3c3ccc(C)cc3Cl)[C@@H]2C1=O` [Example T143], the pest or weed control at 250 g/ha in assay [1] turned out to be 50%; in assay [2] it was 80%; in [3], 10%; in assay [4], 70%; in assay [5], 20%; in [6], 70%. In addition, the pest or weed control at 125 g/ha stood at 40% in assay [7]; 60% in assay [8]; 70% in assay [9]; 30% in assay [10]; 60% in [11]; 40% in assay [12].
On to `CCc1cc(C)cc(CC)c1C1=C(O)[C@@H]2[C@@H]3O[C@@H](C[C@H]3c3ccc(C)c(F)c3)[C@@H]2C1=O` [Example T146], for which the pest or weed control at 250 g/ha in [1] was found to be 70%; in assay [2] it was 80%; in [3], 80%; in assay [4], 90%; in assay [5], 60%; in assay [6], 80%. The pest or weed control at 125 g/ha in [7] came to 80%; in assay [8] it was 70%; in assay [9] it was 100%; in [10], 90%; in assay [11] it was 80%; in assay [12], 70%.
With `CCc1cc(C)cc(CC)c1C1=C(O)[C@@H]2[C@@H]3O[C@@H](C[C@H]3c3cc(F)ccc3C)[C@@H]2C1=O` [Example T147], the pest or weed control at 250 g/ha came to 40% in assay [1]; 40% in assay [2]; 90% in assay [3]; 40% in assay [4]; 0% in assay [5]; 60% in assay [6]. Moreover, the pest or weed control at 125 g/ha in assay [7] was found to be 90%; in assay [8], 100%; in [9], 90%; in [10] it was 40%; in [11], 90%; in [12] it was 70%.
Turning to `CCc1cc(C)cc(CC)c1C1=C(O)[C@@H]2[C@@H]3O[C@@H](C[C@H]3c3ccc(F)c(Cl)c3)[C@@H]2C1=O` [Example T149], the pest or weed control at 250 g/ha in assay [1] is 90%; in assay [2] it was 70%; in [3], 90%; in assay [4], 80%; in assay [5], 60%; in [6] it was 80%. In addition, the pest or weed control at 125 g/ha is 80% in assay [7]; 80% in [8]; 100% in assay [9]; 70% in assay [10]; 90% in assay [11]; 70% in assay [12].
Consider `CCc1cc(C)cc(CC)c1C1=C(O)[C@@H]2[C@@H]3O[C@@H](C[C@H]3c3ccc(Cl)c(Cl)c3)[C@@H]2C1=O` [Example T150], for which the pest or weed control at 250 g/ha amounted to 0% in assay [1]; 0% in assay [2]; 40% in [3]; 30% in [4]; 0% in [5]; 0% in [6]. In addition, the pest or weed control at 125 g/ha was found to be 60% in assay [7]; 30% in assay [8]; 100% in assay [9]; 40% in assay [10]; 60% in assay [11]; 90% in [12].
Take `CCc1cc(C)cc(CC)c1C1=C(O)[C@@H]2[C@@H]3O[C@@H](C[C@H]3c3ccc(C)c(Cl)c3)[C@@H]2C1=O` [Example T151]: the pest or weed control at 250 g/ha in assay [1] worked out at 50%; in assay [2] it was 80%; in assay [3] it was 40%; in assay [4], 60%; in assay [5] it was 20%; in [6], 20%. Moreover, the pest or weed control at 125 g/ha worked out at 80% in assay [7]; 70% in assay [8]; 80% in assay [9]; 30% in assay [10]; 80% in assay [11]; 10% in assay [12].
Consider `CCc1cc(C)cc(CC)c1C1=C(O)[C@@H]2[C@@H]3O[C@@H](C[C@H]3c3cccc(OC)c3)[C@@H]2C1=O` [Example T153], for which the pest or weed control at 250 g/ha came out at 70% in assay [1]; 60% in assay [2]; 70% in assay [3]; 80% in assay [4]; 70% in assay [5]; 70% in assay [6]. Moreover, the pest or weed control at 125 g/ha was determined as 50% in assay [7]; 30% in [8]; 70% in [9]; 50% in assay [10]; 80% in assay [11]; 20% in assay [12].
